# Experimental data: patent US12338484B2, “FRET biosensor for detecting and reporting NAD+/NADH ratio changes” (Sartorius BioAnalytical Instruments, Inc., priority 2022, dated 2025)
# Key:
# Format in all cases: biochemical
# [1] = molecular target: T1, Thermus aquaticus T-Rex FRET fusion, initial construct #2, Rex(78-189)-cpmEGFP(145/146)-Rex(190-211)-Rex(78-211)-mKOk, SEQ ID NO: 162 (Thermus aquaticus, UniProt Q9X2V5, INS189[…]); experiment: FRET response (emission spectra) of purified initial construct #2 in absence or presence of 40 uM NADH; set-up: key: Good response: Constructs with very clear and robust spectra separation; Poor response: those with noticeable but small spectra separation; No response: those having no spectra separation
# T1 construct: His-tag purified from E. coli
# Procedure: (§1) 16 initial FRET constructs (See Table 3) were constructed using expression vector pET28c with a T7 promoter and lac operator and expressed in E. coli. Cells were collected and lysed using a commercially-available lysis buffer. Proteins of interest were isolated from the lysates using Ni-NTA magnetic beads. Eluted proteins were subjected to buffer exchange and final protein concentrating. To test performance of the initial FRET constructs, their emission spectra was recorded on a plate reader in absence or presence of 40 uM NADH. Resulting emission spectra with or without the ligand were normalized and overlaid for each construct. Constructs with very clear and robust spectra separation were labeled as having “good response”, those with noticeable but small spectra separation were labeled as having “poor response”, and finally those having no spectra separation were labeled as having “no response”.
# [2] = molecular target: T2, Thermus aquaticus T-Rex FRET fusion, initial construct #5, mKOk-Rex(78-189)-cpmEGFP(173/174)-Rex(190-211)-Rex(78-211), SEQ ID NO: 165 (Thermus aquaticus, UniProt Q9X2V5, INS189[…]); experiment: FRET response (emission spectra) of purified initial construct #5 in absence or presence of 40 uM NADH; set-up: key: Good response: Constructs with very clear and robust spectra separation; Poor response: those with noticeable but small spectra separation; No response: those having no spectra separation
# T2 construct: His-tag purified from E. coli
# Procedure: as §1
# [3] = molecular target: T3, Thermus aquaticus T-Rex FRET fusion, initial construct #7, mKOk-Rex(78-211)-Rex(78-189)-cpmEGFP(173/174)-Rex(190-211), SEQ ID NO: 167 (Thermus aquaticus, UniProt Q9X2V5, INS189[…]); experiment: FRET response (emission spectra) of purified initial construct #7 in absence or presence of 40 uM NADH; set-up: key: Good response: Constructs with very clear and robust spectra separation; Poor response: those with noticeable but small spectra separation; No response: those having no spectra separation
# T3 construct: His-tag purified from E. coli
# Procedure: as §1
# [4] = molecular target: Thermus aquaticus T-Rex FRET biosensor construct #14 (Rex(A)-mEGFP-Rex(B)-mKOk, SEQ ID NO: 174), library variant 4-A2, SEQ ID NO: 19 (Thermus aquaticus, UniProt Q9X2V5, E116G/F189I/K117M/K47E/R46D/R58D/S30A/Y98W); experiment: Signal window in bacterial lysates, FRET ratio in presence or absence of 200 uM NADH (Table 2); details: clone 4-A2, SEQ ID NO: 19
# From the text: (§2) In specific embodiments, the fusion protein comprises the amino acid sequence selected from the group consisting of SEQ ID NO: 13-93, 95-154, and 191-193; the sequences are provided in Table 2 and the examples.
# (§3) Protein library DNA was generated following cloning that assembled pieces of DNA that were generated using PCRs with mixtures of primers. DNA was transformed into E. coli, and the first round of protein library expression was done in bacterial colonies on agar plates. The colonies, each expressing different library members, were imaged, and then classified into groups based on their FRET ratio signal. Colonies from different groups were inoculated into 96-deep-well plates for further protein expression in liquid culture. The original construct that was used to generate the library (e.g., construct #14 in Table 2) was also inoculated on the same plates, along with non-expressing bacteria. The latter served as a negative control.
# [5] = molecular target: Thermus aquaticus T-Rex FRET biosensor construct #14 (Rex(A)-mEGFP-Rex(B)-mKOk, SEQ ID NO: 174), library variant 4-D10, SEQ ID NO: 17 (Thermus aquaticus, UniProt Q9X2V5, E116G/F189I/K117M/K47E/R46D/R58D/S30A/Y98W); experiment: as above; details: clone 4-D10, SEQ ID NO: 17
# From the text: as §2, §3
# [6] = molecular target: Thermus aquaticus T-Rex FRET biosensor construct #14 (Rex(A)-mEGFP-Rex(B)-mKOk, SEQ ID NO: 174), library variant 1-F8, SEQ ID NO: 13 (Thermus aquaticus, UniProt Q9X2V5, E116G/F189I/K117M/K47E/R46D/R58D/S30A/Y98W); experiment: as above; details: clone 1-F8, SEQ ID NO: 13
# From the text: as §2, §3
# [7] = molecular target: Thermus aquaticus T-Rex FRET biosensor construct #14 (Rex(A)-mEGFP-Rex(B)-mKOk, SEQ ID NO: 174), library variant 4-F1, SEQ ID NO: 18 (Thermus aquaticus, UniProt Q9X2V5, E116G/F189I/K117M/K47E/R46D/R58D/S30A/Y98W); experiment: as above; details: clone 4-F1, SEQ ID NO: 18
# From the text: as §2, §3
# [8] = molecular target: Thermus aquaticus T-Rex FRET biosensor construct #14 (Rex(A)-mEGFP-Rex(B)-mKOk, SEQ ID NO: 174), library variant 1-G8, SEQ ID NO: 16 (Thermus aquaticus, UniProt Q9X2V5, E116G/F189I/K117M/K47E/R46D/R58D/S30A/Y98W); experiment: as above; details: clone 1-G8, SEQ ID NO: 16
# From the text: as §2, §3
# [9] = molecular target: Thermus aquaticus T-Rex FRET biosensor construct #14 (Rex(A)-mEGFP-Rex(B)-mKOk, SEQ ID NO: 174), library variant 1-A7, SEQ ID NO: 20 (Thermus aquaticus, UniProt Q9X2V5, E116G/F189I/K117M/K47E/R46D/R58D/S30A/Y98W); experiment: as above; details: clone 1-A7, SEQ ID NO: 20
# From the text: as §2, §3
# [10] = molecular target: Thermus aquaticus T-Rex FRET biosensor construct #14 (Rex(A)-mEGFP-Rex(B)-mKOk, SEQ ID NO: 174), library variant 2-F3, SEQ ID NO: 15 (Thermus aquaticus, UniProt Q9X2V5, E116G/F189I/K117M/K47E/R46D/R58D/S30A/Y98W); experiment: as above; details: clone 2-F3, SEQ ID NO: 15
# From the text: as §2, §3
# [11] = molecular target: Thermus aquaticus T-Rex FRET fusion, initial construct #10, Rex(A)-cpmEGFP(145/146)-Rex(B)-mKOk, SEQ ID NO: 170 (Thermus aquaticus, UniProt Q9X2V5, E116G/F189I/K117M/K204T/K47E/R46D/R58D/S30A/Y98W); experiment: FRET response (emission spectra) of purified initial construct #10 in absence or presence of 40 uM NADH; set-up: key: Good response: Constructs with very clear and robust spectra separation; Poor response: those with noticeable but small spectra separation; No response: those having no spectra separation
# Procedure: as §1
smiles,measurement,setting,value
NC(=O)C1=CN([C@@H]2O[C@H](COP(=O)(O)OP(=O)(O)OC[C@H]3O[C@@H](n4cnc5c(N)ncnc54)[C@H](O)[C@@H]3O)[C@@H](O)[C@H]2O)C=CC1 [NADH],FRET response to NADH,[1],Poor response
same,FRET response to NADH,[2],No response
same,FRET response to NADH,[3],No response
same,"Signal window (ex mode), measured in lysates",[4],0.32
same,"Signal window (ex mode), measured in lysates",[5],0.34
same,"Signal window (ex mode), measured in lysates",[6],0.55
same,"Signal window (ex mode), measured in lysates",[7],0.33
same,"Signal window (ex mode), measured in lysates",[8],0.34
same,"Signal window (ex mode), measured in lysates",[9],0.31
same,"Signal window (ex mode), measured in lysates",[10],0.34
same,FRET response to NADH,[11],Good response
